The source of these data is patent US11841369B2, “Method for improving quality of therapeutic cell through real-time glutathione measurement” (CELL2IN, INC., priority 2017, dated 2023).

The test system of assay [1] is hES-MSCs. The assay can be described thus: PDGF-AA-induced cell migration of unsorted hES-MSCs. It is filed as cell-based, human. Particulars: hES-MSCs not sorted by FreSH-Tracer. Here is the method: Main factors for determining the therapeutic efficacy of hBM-MSCs, namely a colony forming unit-fibroblast (CFU-F) and a graft survival rate, were evaluated in cell culture models.
In order to test whether direct control of a GSH level in stem cells leads to changes in cell functions, hES-MSCs sorted by FreSH-Tracer were treated with buthionine sulfoximine (BSO; glutathione synthesis inhibitor) and glutathione ethyl ester (GSH-EE). When GSH was decreased in cells by treating GSH^High cells with BSO (80 μM, 24 h), it was confirmed that CFU-F increased, and on the other hand, when GSH was increased by treating GSH^Low cells with GSH-EE (1 mM, 2 h), it was confirmed that CFU-F decreased (FIG. 13A). In addition, it was confirmed that, when hES-MSCs which were not sorted by FreSH-Tracer were treated with BSO or GSH-EE, PDGF-AA-induced cell migration capacity was decreased or increased, respectively (FIG. 13B).

In assay [2] the test system is hES-MSCs. Description: CFU-F of FreSH-Tracer-sorted hES-MSCs. It is filed as cell-based, human. Here is the method:
Twelve hours after hES-MSCs were seeded in […] tissue culture media at a density of 3×10^6 cells/mL, the cells were washed two times with 30 mL of PBS, and labeled with an EGM-2 MV culture solution containing 2 μM FreSH for 2 hours. After the two hours, the cells were washed with 2 μM FreSH-containing PBS twice and treated with a TrypsinLE (Invitrogen) solution to detach the cells, and then trypsin was inactivated with a fresh EGM-2 MV medium containing 2 μM FreSH. Afterward, the cells were centrifuged at 4° C. and 2000 rpm for 20 minutes, and resuspended in a fresh EGM-2 MV medium containing 2 μM FreSH to have a density of 5×10^7 cells/mL. The suspension was diluted 1/5 with PBS containing 2 μM FreSH immediately before loading for FACS (diluted by approximately 1 mL at a time to maintain a temperature of 4° C.).
Afterward, under the following conditions, FACS Instruction (BD ARIAIII, laser at wavelengths of 405 (for measuring F510) and 488 (for measuring F580), nozzle size: 100 μm, 2,000-3,000 events/sec), FACS analysis was performed by gating the cells corresponding to the upper 3.9-35% and the lower 3.9-35% of total cells according to the F510/F580 ratio. […]
Main factors for determining the therapeutic efficacy of hBM-MSCs, namely a colony forming unit-fibroblast (CFU-F) and a graft survival rate, were evaluated in cell culture models. […]

Another assay concerns T cells. Description: Anti-inflammatory effect of treated hUC-MSCs: T cell proliferation, T cell differentiation, Treg cell differentiation. It is filed as cell-based. Particulars: for T cell differentiation capacity / T cell proliferation ability / Treg cell differentiation: hUC-MSCs treated with 1 μM ferrostatin-1 24 h, 0.2 mM GGC 2 h or 2 mM GSH-EE 2 h. Here is the method: The inventors observed an effect of the material on stem cells by treating each stem cells with a material for enhancing a glutathione evaluation parameter. When hUC-MSCs were subcultured in a L-AA2G-containing medium, CFU-F, migration capacity, and an anti-inflammatory effect were observed. A CFU-F assay (n=3) was performed by treating hUC-MSCs with 125 or 250 μg/mL of AA2G for three days. As shown in FIGS. 16A and 16B, it was confirmed that, when AA2G was treated, CFU-F increased. In addition, as hUC-MSCs were treated with 125 or 250 μg/mL of AA2G for three days, PDGF-AA-induced migration capacity (n=3) was analyzed. As shown in FIGS. 17A and 17B, it was confirmed that the migration capacity was increased by AA2G treatment. In addition, the reduction in T cell proliferation, a reduction in T cell differentiation, and the promotion of Treg cell differentiation were observed by treating hUC-MSCs with 125 or 250 μg/mL of AA2G for three days.
In addition, hUC-MSCs were cultured with ferrostatin-1 (0.2, 1, 2 and 4 μM) and liproxstatin-1 (0.1, 0.5, 1 and 2 μM), which control a glutathione level in cells by inhibiting lipid oxidation. […] Meanwhile, the hUC-MSCs were treated with 1 μM ferrostatin-1 for 24 hours, 0.2 mM GGC for 2 hours, and 2 mM GSH-EE for 2 hours. As a result, the reduction in T cell proliferation ability and the reduction in T cell differentiation capacity were observed, and promotion of Treg cell differentiation was observed.

Assay [3] concerns hUC-MSCs. Description: SDF1α- and PDGF-AA-induced migration capacity of hUC-MSCs. It is filed as cell-based, human. Particulars: increasing GGC concentration (0.1, 0.25 mM). Here is the method:
(§1) The inventors observed an effect of the material on stem cells by treating each stem cells with a material for enhancing a glutathione evaluation parameter. When hUC-MSCs were subcultured in a L-AA2G-containing medium, CFU-F, migration capacity, and an anti-inflammatory effect were observed. A CFU-F assay (n=3) was performed by treating hUC-MSCs with 125 or 250 μg/mL of AA2G for three days. As shown in FIGS. 16A and 16B, it was confirmed that, when AA2G was treated, CFU-F increased. In addition, as hUC-MSCs were treated with 125 or 250 μg/mL of AA2G for three days, PDGF-AA-induced migration capacity (n=3) was analyzed. As shown in FIGS. 17A and 17B, it was confirmed that the migration capacity was increased by AA2G treatment. In addition, the reduction in T cell proliferation, a reduction in T cell differentiation, and the promotion of Treg cell differentiation were observed by treating hUC-MSCs with 125 or 250 μg/mL of AA2G for three days. […] Meanwhile, hUC-MSCs were cultured with a glutathione precursor such as γ-glutamyl cysteine (GGC, 0.1, 0.25, and 0.5 mM). A CFU-F assay (n=3) was performed by treating hUC-MSCs with each concentration of GGC for 2 hours. […] In addition, SDF1α and PDGF-AA-induced migration capacities (n=3) were analyzed for hUC-MSCs without treatment with GGC, and SDF1α- and PDGF-AA-induced migration abilities (n=3) were analyzed by treating hUC-MSCs with the increasing concentrations of GGC. STI571 was used as a PDGFR kinase inhibitor. As shown in FIGS. 20A to 20C, it was confirmed that, according to an increase in GGC treatment concentration, SDF1α- and PDGF-AA-induced migration capacities were enhanced.

Assay [4] relates to hUC-MSCs. The assay can be described thus: CFU-F assay of hUC-MSCs. It is filed as cell-based, human. Here is the method:
as §1, with “enhanced. A CFU-F assay (n=3) was performed by treating hUC-MSCs with 0.2, 1, 2, and 4 μM ferrostatin-1 and 0.1, 0.5, 1, and 2 μM liproxstatin-1 for 24 hours.” for “enhanced.”

Assay [5] relates to hUC-MSCs. Description: Oxidative stress resistance capacity (ORC) analysis with RSL3. Particulars: hUC-MSCs, 0, 2.5, 5 or 10 μM liproxstatin-1 with 0, 0.5 or 1 μM RSL3; concentration-dependent. It is filed as cell-based, human. Here is the method:
In addition, GH is calculated as the coefficient of variation or robust coefficient of variation of cellular FR. GRC refers to a value obtained by real-time monitoring of FR after living cells are treated with an oxidizing agent, as calculated by dividing a value obtained by subtracting AUC of a group treated with 0.1-100 mM N-ethylmaleimide (NEM) from FR AUC of an oxidizing agent (diamide, H2O2, etc.)-treated group by a value obtained by subtracting the AUC of NEM-treated group from AUC of the untreated control, and multiplying the resulting value by 100. The FR of the NEM-treated group is a value for increasing the sensitivity of a GRC value by treating it as the blank value of the FR of the cells of interest. […] To remove the MitoFreSH-Tracer from the medium before measurement, the medium was exchanged with fresh 10 mM HEPES-containing HBSS, and a fluorescence image was obtained using a confocal imaging system, Operetta. By comparing GSH levels quantified from control cells not treated with RSL3 or control cells before treated with RSL3, the distribution of GSH expression-changed cells was calculated. Based on the point where the distribution histogram is divided into two peaks, the cells were divided into GSH^High cells (right peak) and GSH^Low cells (left peak), and then a ratio of corresponding cells was expressed as a percentage (%). […]

For the compound `CCCCS(=N)(=O)CCC(N)C(=O)O` (centres unmarked) [BSO, buthionine sulfoximine], the “PDGF-AA-induced cell migration capacity” value in the assay on hES-MSCs [1] is on record as “decreased”. The CFU-F result in the assay on hES-MSCs [2] (GSH^High hES-MSCs, BSO 80 μM, 24 h) is recorded as “increased”.
In the case of `N[C@@H](CCC(=O)N[C@@H](CS)C(=O)O)C(=O)O` [GGC, γ-glutamyl cysteine], in the assay with T cells, the “T cell differentiation capacity” value was “reduction”, the “T cell proliferation ability” value is listed as “reduction” and the Treg cell differentiation result was “promotion”. In the assay on T cells (hUC-MSCs with GGC treatment (FIGS. 27, 28A to 28C)), the anti-inflammatory effect entry is recorded as “no change”. Also, in the assay with hUC-MSCs [3], the PDGF-AA-induced migration capacity result is reported as “enhanced” and the SDF1α-induced migration capacity entry is given as “enhanced”. In addition, in the assay on hUC-MSCs [4] (GGC 0.1, 0.25 and 0.5 mM, 2 hours), the CFU-F entry is “increased”.
Regarding `CCOC(=O)CNC(=O)[C@H](CS)NC(=O)CC[C@H](N)C(=O)O` [GSH-EE, glutathione ethyl ester], the “PDGF-AA-induced cell migration capacity” value with hES-MSCs [1] is “increased”. The CFU-F result in the assay with hES-MSCs [2] (GSH^Low hES-MSCs, GSH-EE 1 mM, 2 h) is listed as “decreased”. Besides, in the assay on T cells, the “T cell differentiation capacity” value is “reduction”, the “T cell proliferation ability” value is “reduction” and the Treg cell differentiation entry is listed as “promotion”.
`Clc1cccc(CN=C2Nc3ccccc3NC23CCNCC3)c1` [liproxstatin-1]: the “anti-inflammatory effect of the hUC-MSCs” value in the assay on T cells (ferrostatin-1 or liproxstatin-1 treatment (FIGS. 27, 28A to 28C)) is recorded as “did not alter”. In addition, the “ratio of the GSH^High cells (ORC)” value in the assay with hUC-MSCs [5] was “increased”. Also, in the assay with hUC-MSCs [4] (ferrostatin-1 0.2, 1, 2, 4 μM or liproxstatin-1 0.1, 0.5, 1, 2 μM, 24 hours), the CFU-F entry is on record as “improved”.
